Patent publication US10434112B2, “Use of agonists of formyl peptide receptor 2 for treating dermatological diseases” (Allergan, Inc., priority 2013, dated 2019)

Target: human FPR2 receptor (Homo sapiens (Human), UniProt P25090)
Test: FLIPR Ca+2 response in HEK-Gα16 cells stably expressing the human FPR2 receptor
Format: cell-based
Parameters: FPR2 (% eff): unit not given here
Conditions: Table 4; for FPR2 (% eff): value in brackets, given mostly as fraction
Protocol: FLIPR: HEK-Gα16 cells stably expressing the human FPR2 receptor was utilized. Cells were plated into 384-well poly-D-lysine coated plates at a density of 18,000 cells per well one day prior to use. The growth media was DMEM medium supplemented with 10% fetal bovine serum (FBS), 1% antibiotic-antimycotic, 50 μg/ml hygromycin, and 400 μg/ml geneticin. On the day of the experiment, the cells were washed twice with Hank's Balanced Salt Solution supplemented with 20 mM HEPES (HBSS/hepes buffer). The cells were then dye loaded with 2 μM Fluo-4 diluted in the HBSS/Hepes buffer and incubated at 37° C. for 40 minutes. Extracellular dye was removed by washing the cell plates four times prior to placing the plates in the FLIPR (Fluorometric Imaging Plate Reader, Molecular Devices). Ligands were diluted in HBSS/Hepes buffer and prepared in 384-well microplates. Data for Ca^+2 responses were obtained in relative fluorescence units.

Chain of human FPR2 receptor (P25090 whole entry): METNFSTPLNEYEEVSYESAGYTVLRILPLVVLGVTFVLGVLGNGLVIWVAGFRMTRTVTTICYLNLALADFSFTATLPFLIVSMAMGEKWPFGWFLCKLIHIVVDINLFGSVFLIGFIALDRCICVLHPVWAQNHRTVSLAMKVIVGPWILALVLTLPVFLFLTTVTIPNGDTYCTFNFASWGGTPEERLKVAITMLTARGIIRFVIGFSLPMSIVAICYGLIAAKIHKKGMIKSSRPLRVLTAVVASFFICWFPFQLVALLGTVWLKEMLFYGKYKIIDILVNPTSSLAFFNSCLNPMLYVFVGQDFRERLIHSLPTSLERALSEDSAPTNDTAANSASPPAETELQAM

FPR2 (% eff) | EC50 [nM] | Compound
0.94 | – | CC1(CCc2cccs2)NC(=O)N(NC(=O)Nc2ccc(Br)cc2)C1=O (stereo not drawn) [Compound 88, 1-(4-bromophenyl)-3-{4-methyl-2,5-dioxo-4-[2-(thiophen-2-yl)ethyl]imidazolidin-1-yl}urea]
0.85 | – | CC1(CCc2ccc(O)cc2)NC(=O)N(NC(=O)Nc2ccc(Br)cc2F)C1=O (stereo not drawn) [Compound 89, 1-(4-bromo-2-fluorophenyl)-3-{4-[2-(4-hydroxyphenyl)ethyl]-4-methyl-2,5-dioxoimidazolidin-1-yl}urea]
0.97 | – | CC(C)C[C@H](NC(=O)Nc1ccc(Br)cc1)C(=O)N[C@H](C(=O)O)C(C)C [Compound 91, (2S)-2-{[(2S)-2-{[(4-bromophenyl)carbamoyl]amino}-4-methylpentanoyl]amino}-3-methylbutanoic acid]
1.0 | – | CC(C)C[C@H](NC(=O)Nc1ccc(Br)cc1)C(=O)N[C@H](C(N)=O)C(C)C [Compound 92, (2S)-N-[(2S)-1-amino-3-methyl-1-oxobutan-2-yl]-2-{[(4-bromophenyl)carbamoyl]amino}-4-methylpentanamide]
0.93 | – | CC(C)C[C@H](NC(=O)Nc1ccc(Br)cc1)C(=O)NCC(C)(C)O [Compound 93, (2S)-2-{[(4-bromophenyl)carbamoyl]amino}-N-(2-hydroxy-2-methylpropyl)-4-methylpentanamide]
0.96 | – | CC(C)C[C@H](NC(=O)Nc1ccc(Br)cc1)C(=O)NC(CO)CO [Compound 94, (2S)-2-{[(4-bromophenyl)carbamoyl]amino}-N-(1,3-dihydroxypropan-2-yl)-4-methylpentanamide]
1.0 | – | CC(C)C[C@H](NC(=O)Nc1ccc(Br)cc1)C(=O)N[C@H](C)CO [Compound 96, (2S)-2-{[(4-bromophenyl)carbamoyl]amino}-N-[(2R)-1-hydroxypropan-2-yl]-4-methylpentanamide]
0.95 | – | Cc1ccc(CCC2(C)NC(=O)N(NC(=O)Nc3ccc(Br)cc3)C2=O)o1 (stereo not drawn) [Compound 97, 1-(4-bromophenyl)-3-{4-methyl-4-[2-(5-methylfuran-2-yl)ethyl]-2,5-dioxoimidazolidin-1-yl}urea]
0.91 | – | CC1(CCc2ccc(O)c(F)c2)NC(=O)N(NC(=O)Nc2ccc(Br)cc2F)C1=O (stereo not drawn) [Compound 98, 1-(4-bromo-2-fluorophenyl)-3-{4-[2-(3-fluoro-4-hydroxyphenyl)ethyl]-4-methyl-2,5-dioxoimidazolidin-1-yl}urea]
1.0 | – | CC1(CCc2ccc(O)c(F)c2)NC(=O)N(NC(=O)Nc2ccc(Br)cc2)C1=O (stereo not drawn) [Compound 99, 1-(4-bromophenyl)-3-{4-[2-(3-fluoro-4-hydroxyphenyl)ethyl]-4-methyl-2,5-dioxoimidazolidin-1-yl}urea]
1.0 | – | CCC[C@H](NC(=O)[C@H](CC(C)C)NC(=O)Nc1ccc(Br)cc1)C(=O)OC(C)(C)C [Compound 100, tert-butyl (2S)-2-{[(2S)-2-{[(4-bromophenyl)carbamoyl]amino}-4-methylpentanoyl]amino} pentanoate]
0.95 | – | CCC[C@H](NC(=O)[C@H](CC(C)C)NC(=O)Nc1ccc(Br)cc1)C(=O)O [Compound 101, (2S)-2-{[(2S)-2-{[(4-bromophenyl)carbamoyl]amino}-4-methylpentanoyl]amino} pentanoic acid]
0.99 | – | CCC[C@H](NC(=O)[C@H](CC(C)C)NC(=O)Nc1ccc(Br)cc1)C(N)=O [Compound 102, (2S)-N-[(2S)-1-amino-1-oxopentan-2-yl]-2-{[(4-bromophenyl)carbamoyl]amino}-4-methylpentanamide]
1.0 | – | CC(C)C[C@H](NC(=O)Nc1ccc(Br)cc1)C(=O)N[C@H](C(=O)O)c1ccccc1 [Compound 103, (2S)-{[(2S)-2-{[(4-bromophenyl)carbamoyl]amino}-4-methylpentanoyl]amino} (phenyl)ethanoic acid]
0.81 | – | CC(C)C[C@H](NC(=O)Nc1ccc(Br)cc1)C(=O)NCc1nnn[nH]1 [Compound 104, (2S)-2-{[(4-bromophenyl)carbamoyl]amino}-4-methyl-N-(1H-tetrazol-5-ylmethyl)pentanamide]
0.91 | – | CC1(CCc2ccccc2O)NC(=O)N(NC(=O)Nc2ccc(Br)cc2F)C1=O (stereo not drawn) [Compound 106, 1-(4-bromo-2-fluorophenyl)-3-[4-[2-[2-hydroxyphenyl)ethyl]-4-methyl-2,5-dioxoimidazolidin-1-yl}urea]
0.79 | – | CC1(CCc2cccc(O)c2)NC(=O)N(NC(=O)Nc2ccc(Br)cc2F)C1=O (stereo not drawn) [Compound 107, 1-(4-bromo-2-fluorophenyl)-3-{4-[2-(3-hydroxyphenyl)ethyl]-4-methyl-2,5-dioxoimidazolidin-1-yl}urea]
100 | 2.1 | CC1(CCc2cccc(O)c2)NC(=O)N(NC(=O)Nc2ccc(Br)cc2)C1=O (stereo not drawn) [Compound 108, 1-(4-bromophenyl)-3-{4-[2-(3-hydroxyphenyl)ethyl]-4-methyl-2,5-dioxoimidazolidin-1-yl}urea]
0.93 | – | CC1(CCc2ccccc2O)NC(=O)N(NC(=O)Nc2ccc(Br)cc2)C1=O (stereo not drawn) [Compound 109, 1-(4-bromophenyl)-3-{4-[2-(2-hydroxyphenyl)ethyl]-4-methyl-2,5-dioxoimidazolidin-1-yl}urea]
0.98 | – | CC(C)CC(C)(NC(=O)Nc1ccc(Br)cc1)C(=O)O (stereo not drawn) [Compound 110, 2-{[(4-bromophenyl)carbamoyl]amino}-2,4-dimethylpentanoic acid]
0.99 | – | CC(C)CC(C)(NC(=O)Nc1ccc(Br)cc1)C(=O)NCC(=O)O (stereo not drawn) [Compound 111, [(2-{[(4-bromophenyl)carbamoyl]amino}-2,4-dimethylpentanoyl)amino] acetic acid]
100 | 18.7 | CCC(CC)(NC(=O)Nc1ccc(Br)cc1)C(=O)NCC(=O)O [Compound 113]
0.99 | – | CC(C)C[C@H](NC(=O)Nc1ccc(Br)cc1)C(=O)NCC(=O)N(C)C [Compound 120, (2S)-2-{[(4-bromophenyl)carbamoyl]amino}-N-[2-(dimethylamino)-2-oxoethyl]-4-methylpentanamide]
0.93 | – | CC(C)C[C@H](NC(=O)Nc1ccc(I)cc1)C(=O)O [Compound 121, (2S)-2-{[(4-iodophenyl)carbamoyl]amino}-4-methylpentanoic acid]
1.0 | – | CCC[C@H](NC(=O)Nc1ccc(Br)cc1)C(=O)NCP(=O)(OC(C)C)OC(C)C [Compound 125, dipropan-2-yl ({[(2S)-2-{[(4-bromophenyl)carbamoyl]amino}pentanoyl]amino}methyl) phosphonate]
0.91 | – | CC(C)C[C@H](NC(=O)Nc1ccc(Br)cc1)C(=O)NCS(=O)(=O)O [Compound 127, {[(2S)-2-{[(4-bromophenyl)carbamoyl]amino}4-methylpentanoyl]amino} methanesulfonic acid]
0.92 | – | CSc1ccc(NC(=O)N[C@@H](CC(C)C)C(=O)O)cc1 [Compound 128, (2S)-4-methyl-2-({[4-(methylsulfanyl)phenyl]carbamoyl}amino)pentanoic acid]
1.0 | 3 | CSc1ccc(NC(=O)N[C@@H](CC(C)C)C(=O)NCC(=O)O)cc1 [Compound 130, {[(2S)-4-methyl-2-({[4-(methylsulfanyl)phenyl]carbamoyl}amino)pentanoyl]amino}acetic acid]

Compound | FPR2 (% eff) | EC50 [nM]
CCOP(=O)(O)CNC(=O)[C@H](CC(C)C)NC(=O)Nc1ccc(Br)cc1 [Compound 105, ethyl hydrogen ({[(2S)-2-{[(4-bromophenyl)carbamoyl]amino}-4-methylpentanoyl]amino}methyl)phosphonate] | 0.88 | –
CCOP(=O)(CNC(=O)[C@@H](NC(=O)Nc1ccc(Br)cc1)[C@@H](C)CC)OCC [Compound 114, diethyl ({[(2S,3S)-2-{[(4-bromophenyl)carbamoyl]amino}-3-methylpentanoyl]amino}methyl)phosphonate] | 1.0 | –
CCOP(=O)(O)CNC(=O)[C@@H](NC(=O)Nc1ccc(Br)cc1)[C@@H](C)CC [Compound 115, ethyl hydrogen ({[(2S,3S)-2-{[(4-bromophenyl)carbamoyl]amino}3-methylpentanoyl]amino}methyl)phosphonate] | 0.88 | –
CC(C)C[C@H](NC(=O)Nc1ccc(Br)cc1)C(=O)NCc1cc(O)no1 [Compound 116, (2S)-2-{[(4-bromophenyl)carbamoyl]amino}-N-[(3-hydroxy-1,2-oxazol-5-yl)methyl]-4-methylpentanamide] | 1.0 | –
CCC[C@H](NC(=O)Nc1ccc(Br)cc1)C(=O)NCP(=O)(OCC)OCC [Compound 117, diethyl ({[(2S)-2-{[(4-bromophenyl)carbamoyl]amino}pentanoyl]amino}methy) phosphonate] | 1.0 | –
CCOP(=O)(CNC(=O)[C@H](Cc1ccccc1)NC(=O)Nc1ccc(Br)cc1)OCC [Compound 118, diethyl ({[(2S)-2-{[(4-bromophenyl)carbamoyl]amino}-3-phenylpropanoyl]amino}methyl)phosphonate] | 0.93 | –
CCC[C@H](NC(=O)Nc1ccc(Br)cc1)C(=O)NCP(=O)(O)OCC [Compound 123, ethyl hydrogen ({[(2S)-2-{[(4-bromophenyl)carbamoyl]amino}pentanoyl]amino}methyl) phosphonate] | 0.96 | –
CCOP(=O)(O)CNC(=O)[C@H](Cc1ccccc1)NC(=O)Nc1ccc(Br)cc1 [Compound 126, ethyl hydrogen ({[(2S)-2-{[(4-bromophenyl)carbamoyl]amino}3-phenylpropanoyl]amino}methyl)phosphonate] | 1.0 | –
